Laboratory results published in ChEMBL document CHEMBL1201862, “PubChem BioAssay data set” (2004).
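Each compound was tested at five concentrations against cells in 96-well plates for 48 hours. GI50 is the concentration that inhibits growth by half.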 Active and inactive are the calls of the source. Cut-off read from the data, not from the text of the source: active = GI50 up to about 1.1 µM and inactive = higher.

How the values were obtained:
Test in all cases: DTP human tumour cell line panel, 48 h
EKVX = system: EKVX
HCT-116 = system: HCT-116
HOP-62 = system: HOP-62
HOP-92 = system: HOP-92
Hs-578T = system: Hs-578T
KM12 = system: KM12
NCI-H23 = system: NCI-H23
NCI/ADR-RES = system: NCI/ADR-RES
PC-3 = system: PC-3
RXF 393 = system: RXF 393
SF-539 = system: SF-539
SK-MEL-28 = system: SK-MEL-28
SK-MEL-5 = system: SK-MEL-5
SK-OV-3 = system: SK-OV-3
SN12C = system: SN12C
SNB-19 = system: SNB-19
TK-10 = system: TK-10
UACC-62 = system: UACC-62
HCC 2998 = system: HCC 2998
MCF7 = system: MCF7

Measured: GI50

N#C[C@H](C(=O)c1ccccc1F)c1nc2ccccc2s1
inactive: EKVX 28 µM | HCT-116 23.5 µM | HOP-62 20.5 µM | HOP-92 48.1 µM | Hs-578T 15.1 µM | KM12 11 µM | NCI-H23 46.3 µM | NCI/ADR-RES 26.9 µM | PC-3 24.2 µM | RXF 393 27.7 µM | SF-539 20.7 µM | SK-MEL-28 36.5 µM | SK-MEL-5 26.9 µM | SK-OV-3 21.1 µM | SN12C 31.6 µM | SNB-19 27.5 µM | TK-10 > 100 µM | UACC-62 50.8 µM

COc1cc(Oc2nc3ccccc3nc2C(=O)O)cc(OC)c1OC
inactive: EKVX > 100 µM | HCC 2998 > 100 µM | HCT-116 > 100 µM | HOP-62 > 100 µM | HOP-92 > 100 µM | Hs-578T > 100 µM | KM12 > 100 µM | NCI-H23 > 100 µM | NCI/ADR-RES > 100 µM | PC-3 > 100 µM | RXF 393 > 100 µM | SK-MEL-28 > 100 µM | SK-MEL-5 > 100 µM | SK-OV-3 > 100 µM | SNB-19 > 100 µM | TK-10 > 100 µM | UACC-62 > 100 µM

O=C1/C(=C/c2ccc(O)c(CN3CCCCC3)c2)CCC/C1=C\c1ccc(O)c(CN2CCCCC2)c1
inactive: EKVX 8.85 µM | HCC 2998 5.64 µM | HCT-116 2.4 µM | HOP-62 5.04 µM | HOP-92 4.26 µM | Hs-578T 8.24 µM | KM12 4.12 µM | MCF7 3.26 µM | NCI-H23 5.52 µM | NCI/ADR-RES 2.89 µM | PC-3 7.05 µM | RXF 393 3.24 µM | SK-MEL-28 13.3 µM | SK-MEL-5 14 µM | SK-OV-3 8.53 µM | SN12C 8.79 µM | SNB-19 5.04 µM | TK-10 6.17 µM | UACC-62 16 µM

CC12CC3OC(=O)C1COC14OC5(C2C1=O)C(O)(CCC1C4CC(O)C2(O)CC=CC(=O)C12C)C(=O)OC35C (configuration not stated)
inactive: EKVX > 100 µM | HCC 2998 > 100 µM | HCT-116 > 100 µM | HOP-92 > 100 µM | Hs-578T > 100 µM | KM12 > 100 µM | MCF7 > 100 µM | NCI-H23 > 100 µM | NCI/ADR-RES > 100 µM | PC-3 > 100 µM | SF-539 > 100 µM | SK-MEL-28 > 100 µM | SK-MEL-5 > 100 µM | SK-OV-3 > 100 µM | SN12C > 100 µM | SNB-19 > 100 µM | TK-10 > 100 µM | UACC-62 > 100 µM

COc1c(O)cc(/C=C/c2cc(O)cc3c2[C@@]2(C(=O)O3)c3c(O)cc(O)cc3OC2c2cccc(O)c2)cc1O (some centres not stated)
inactive: HCT-116 51.6 µM | HOP-62 > 100 µM | HOP-92 > 100 µM | Hs-578T 72.8 µM | KM12 39.1 µM | MCF7 48.6 µM | NCI-H23 81.7 µM | NCI/ADR-RES 26.4 µM | PC-3 51.8 µM | RXF 393 52.2 µM | SF-539 39.4 µM | SK-MEL-28 35.2 µM | SK-MEL-5 32 µM | SK-OV-3 28.2 µM | SN12C 19.2 µM | SNB-19 39.3 µM | TK-10 95.9 µM | UACC-62 30.4 µM

Oc1ccccc1/C=N/c1ccc(-c2nc3ccccc3[nH]2)cc1
inactive: EKVX > 100 µM | HCT-116 53.6 µM | HOP-62 > 100 µM | HOP-92 22.9 µM | Hs-578T > 100 µM | KM12 43.3 µM | MCF7 20.7 µM | NCI-H23 50.5 µM | NCI/ADR-RES 4.53 µM | PC-3 50.5 µM | RXF 393 29.7 µM | SF-539 > 100 µM | SK-MEL-28 > 100 µM | SK-MEL-5 27.8 µM | SK-OV-3 > 100 µM | SN12C 79.1 µM | SNB-19 > 100 µM | TK-10 > 100 µM

O=P1(O)c2ccccc2CCc2ccccc21
inactive: EKVX > 100 µM | HCC 2998 > 100 µM | HCT-116 > 100 µM | HOP-62 > 100 µM | HOP-92 > 100 µM | Hs-578T > 100 µM | KM12 > 100 µM | MCF7 > 100 µM | NCI-H23 > 100 µM | PC-3 > 100 µM | RXF 393 > 100 µM | SF-539 > 100 µM | SK-MEL-28 > 100 µM | SK-MEL-5 > 100 µM | SK-OV-3 > 100 µM | SN12C > 100 µM | SNB-19 > 100 µM | TK-10 > 100 µM | UACC-62 > 100 µM
